According to patent US10079346B2, “Heteroaromatic compounds for organic electronics” (BASF SE, priority 2014, dated 2018):
Converted amounts (≈) assume the structure as drawn. Like-named read-outs stand apart in the source and are kept apart here.

Assay: Solubility at 25° C. in organic solvents (Example 15)
Format: physicochemical
Conditions: organic solvent or mixture
[1] = chlorobenzene, clorobenzene, read-out: Solubility in clorobenzene
[2] = CHCl3, read-out: Solubility in CHCl3
[3] = DMF, read-out: Solubility in DMF
[4] = THF, read-out: Solubility in THF

Row | SMILES | solubility [1] | solubility [2] | solubility [3] | solubility [4]
1 | CC(C)(C)OC(=O)n1c2c(c3c1=Nc1ccccc1S3)Sc1ccccc1N=2 [Compound 1a] | 5000 to 10000 µg/mL (≈ 12.3 to 24.5 mM) | 5000 to 10000 µg/mL (≈ 12.3 to 24.5 mM) | 1000 to 5000 µg/mL (≈ 2.45 to 12.3 mM) | 1000 to 5000 µg/mL (≈ 2.45 to 12.3 mM)
2 | CCCCCCCc1ccc2c(c1)N=c1c(c3c(n1C(=O)OC(C)(C)C)=Nc1cc(CCCCCCC)ccc1S3)S2 [Compound 1c] | > 10000 µg/mL | > 10000 µg/mL | < 1000 µg/mL | > 10000 µg/mL
3 | CCCCCCCCCCCCc1ccc2c(c1)N=c1c(c3c(n1C(=O)OC(C)(C)C)=Nc1cc(CCCCCCCCCCCC)ccc1S3)S2 [Compound 1d] | > 10000 µg/mL | > 10000 µg/mL | > 10000 µg/mL | > 10000 µg/mL
4 | c1ccc2c(c1)N=c1[nH]c3c(c1S2)Sc1ccccc1N=3 [Compound 2a, reference compound] | < 1000 µg/mL | < 1000 µg/mL | < 1000 µg/mL | < 1000 µg/mL
